Assay results reported in patent publication US7442794B2, “Rearranged pentanols, a process for their production and their use as anti-inflammatory agents” (Schering AG, priority 2003, dated 2008).

What was measured:
[1] = system: secretion of cytokine IL-8 in human monocyte cell line THP-1 triggered by lipopolysaccharide (LPS); assay: Inhibition of LPS-triggered secretion of cytokine IL-8 in THP-1 cells (ELISA); assay type: cell-based; details: LPS-triggered IL-8 secretion, THP-1, supernatant ELISA, read-out: inhibition IC50(IL8)
Description: The concentration of the cytokines was determined in the supernatant by means of commercially available ELISA kits.

[2] = biological target: glucocorticoid receptor (GR) (Homo sapiens, UniProt P04150); assay: biochemical
Chain of glucocorticoid receptor (GR) (P04150 whole entry, species assumed): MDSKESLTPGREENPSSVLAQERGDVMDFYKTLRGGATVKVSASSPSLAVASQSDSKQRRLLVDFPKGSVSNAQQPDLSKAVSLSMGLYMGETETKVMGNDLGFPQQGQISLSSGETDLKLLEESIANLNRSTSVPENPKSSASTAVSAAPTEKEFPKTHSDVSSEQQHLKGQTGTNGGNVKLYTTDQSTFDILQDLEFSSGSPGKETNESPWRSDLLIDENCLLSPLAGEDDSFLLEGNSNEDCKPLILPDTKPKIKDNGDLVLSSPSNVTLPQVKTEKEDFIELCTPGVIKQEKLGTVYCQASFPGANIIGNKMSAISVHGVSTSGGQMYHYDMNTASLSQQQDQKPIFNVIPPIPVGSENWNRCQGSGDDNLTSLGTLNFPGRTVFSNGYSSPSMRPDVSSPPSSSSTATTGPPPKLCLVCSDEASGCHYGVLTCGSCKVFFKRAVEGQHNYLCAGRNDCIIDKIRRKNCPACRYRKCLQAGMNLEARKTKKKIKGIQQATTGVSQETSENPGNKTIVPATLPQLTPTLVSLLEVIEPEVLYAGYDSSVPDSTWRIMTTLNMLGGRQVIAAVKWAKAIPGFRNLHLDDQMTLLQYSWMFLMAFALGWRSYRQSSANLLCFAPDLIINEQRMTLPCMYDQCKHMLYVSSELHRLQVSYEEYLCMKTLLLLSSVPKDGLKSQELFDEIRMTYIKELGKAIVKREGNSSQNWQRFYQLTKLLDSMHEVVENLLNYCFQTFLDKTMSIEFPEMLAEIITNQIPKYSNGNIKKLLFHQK
Text: The binding of the substances to the glucocorticoid receptor (GR) and other steroid hormone receptors (mineral corticoid receptor (MR), progesterone receptor (PR) and androgen receptor (AR)) is examined with the aid of recombinantly produced receptors. Cytosol preparations of Sf9 cells, which had been infected with recombinant baculoviruses, which code for the GR, are used for the binding studies.

| melting point | IC50 [1] | IC50 [2] | SMILES |
| --- | --- | --- | --- |
| 72 to 73 °C | – | – | C=C(C)CC(O)(C(Nc1ccc(F)c2nc(C)ncc12)c1ccc(Cl)cc1OC)C(F)(F)F (racemic) [Example 7, 2-{4-Chloro-alpha-[(8-fluoro-2-methylquinazolin-5-yl)amino]-2-methoxybenzyl}-1,1,1-trifluoro-4-methylpent-4-en-2-ol] |
| – | 25 nM | 64 nM | C=C(C)CC(O)(C(Nc1cccc2c(=O)[nH]ccc12)c1cc(Br)ccc1O)C(F)(F)F (stereo not drawn) [Example 3, 5-{[1-(5-Bromo-2-hydroxyphenyl)-2-hydroxy-4-methyl-2-(trifluoromethyl)-pent-4-en-1-yl]amino}-isoquinolin-1(2H)-one] |
